{
  "source": "paper PMC10791743",
  "about": "“Selective CK1α degraders exert antiproliferative activity against a broad range of human cancer cell lines” (Nature Communications, 2024)",
  "key": {"MOLM-13 cells [1]": {"system": "MOLM-13 cells", "test": "MOLM-13 cell viability assay (CTG, 72 h)", "type": "cell-based, human", "parameters": "key to Cell viability in MOLM-13 cells / cell viability, dose-response replicate values: % viability = 100 − % activity, normalized to controls", "details": "for Cell viability in MOLM-13 cells: SJ7095 series"}, "MOLM-13 cells [2]": {"system": "MOLM-13 cells", "test": "TMT quantitative proteomics in MOLM-13", "type": "cell-based, human", "details": "for TMT protein intensity, CDKN1A, replicate values: DMSO 3.10E+04, 3.47E+04; for TMT protein intensity, CSNK1A1, replicate values: DMSO 4.01E+05, 4.09E+05", "procedure": "We next carried out a tandem mass tag (TMT) quantitative proteomics experiment[30] to identify the neosubstrates whose degradation is induced by SJ7095. […] We confirmed the proteomics results by immunoblot analysis of CK1α in MOLM-13 cells following treatment with increasing concentrations of SJ7095 over 4 h (Fig. 2b). Under these conditions compound SJ7095 induced dose-dependent reduction of CK1α protein levels with DC50 value of 15 nM.\nEach compound was tested in three wells of 2 million MOLM-13 cells each. […] Cells were then collected and washed with DPBS. Washed cells were centrifuged at 400×g for 5 min at 4 °C, the supernatant was removed, and pellets were snap frozen in liquid nitrogen and stored at −80 °C until sample submission.\nThe experiment was performed with a previously optimized protocol[30] with slight modification. Cell pellets were lysed in lysis buffer (50 mM HEPES, pH 8.5, 8 M urea, and 0.5% sodium deoxycholate). To profile the whole proteome, the protein lysates (approximately 100 µg of protein per sample) were proteolyzed with LysC (Wako) at an enzyme-to-substrate ratio of 1:100 (w/w) for 2 h at 21 °C. Following this the samples were diluted to a final 2 M Urea concentration, and further digested with trypsin (Promega) at an enzyme-to-substrate ratio of 1:50 (w/w) for at least 3 h. The peptides were reduced by adding 1 mM DTT for 30 min at 21 °C followed by alkylation with 10 mM iodoacetamide (IAA) for 30 min in the dark. The unreacted IAA was quenched with 30 mM DTT for 30 min. Finally, the digestion was stopped by adding trifluoroacetic acid (TFA) to 1%, desalted using C18 cartridges (Harvard Apparatus), and dried by speedvac. The purified peptides were resuspended in 50 mM HEPES (pH 8.5), and labeled with TMT reagents (Thermo Scientific). The differentially labeled samples were pooled equally, desalted, and dried for the subsequent peptide fractionation. Peptide analysis by two-dimensional liquid chromatography–tandem mass spectrometry (LC/LC–MS/MS) and MS data analysis are described in Supplementary Material. […]\nIdentification/quantification of proteins\nThe MS/MS raw data were processed by a tag-based hybrid search engine, JUMP7. The data was […]\nconcatenated with a reversed decoy database for evaluating False Discovery Rate (FDR). Searches were performed using a 15 ppm mass tolerance for precursor ions, fully tryptic restriction with two maximal missed cleavages, three maximal modification sites, and the assignment of b, and y ions.\nTMT tags on lysine residues and N-termini (+304.2071453 Da for TMT16 and TMT18) were used for static modifications. In addition, oxidation of Methionine (Met) was considered as a dynamic modification (+15.99492 Da). Putative peptide spectral matches (PSMs) were filtered by mass accuracy and then grouped by precursor ion charge state and further filtered by JUMP-based matching scores, Jscore and ΔJn, to achieve the protein FDR below 1%. For quantification, TMT intensities of reporter ions were extracted, filtered, normalized, and summarized into peptide and […]\nDifferential expression analysis of proteins\nIdentification of differentially expressed proteins were conducted by the limma R package8. To control multiple testing, the Benjamini-Hochberg method was employed. Proteins with an adjusted […]\np value of < 0.05 and log2 fold change of > 2-fold of standard deviation (SD) were defined as differentially expressed. […]"}, "CRBN": {"target": "T1, CRBN (Homo sapiens, UniProt Q96SW2)", "T1 construct": "6XHis (N)", "T1 sequence (Q96SW2 whole entry)": "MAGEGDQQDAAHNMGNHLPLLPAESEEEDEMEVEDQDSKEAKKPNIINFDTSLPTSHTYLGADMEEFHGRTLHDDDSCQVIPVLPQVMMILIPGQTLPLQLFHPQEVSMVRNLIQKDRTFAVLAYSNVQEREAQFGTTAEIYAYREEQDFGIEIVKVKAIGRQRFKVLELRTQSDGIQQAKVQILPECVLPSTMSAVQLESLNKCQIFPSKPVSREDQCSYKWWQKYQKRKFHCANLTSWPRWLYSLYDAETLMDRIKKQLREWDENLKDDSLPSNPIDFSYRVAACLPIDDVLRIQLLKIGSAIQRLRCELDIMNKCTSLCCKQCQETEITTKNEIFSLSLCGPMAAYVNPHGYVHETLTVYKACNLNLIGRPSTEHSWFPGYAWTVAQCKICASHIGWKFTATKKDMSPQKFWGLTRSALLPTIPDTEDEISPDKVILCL", "T1 sequence (Q16531 whole entry partner)": "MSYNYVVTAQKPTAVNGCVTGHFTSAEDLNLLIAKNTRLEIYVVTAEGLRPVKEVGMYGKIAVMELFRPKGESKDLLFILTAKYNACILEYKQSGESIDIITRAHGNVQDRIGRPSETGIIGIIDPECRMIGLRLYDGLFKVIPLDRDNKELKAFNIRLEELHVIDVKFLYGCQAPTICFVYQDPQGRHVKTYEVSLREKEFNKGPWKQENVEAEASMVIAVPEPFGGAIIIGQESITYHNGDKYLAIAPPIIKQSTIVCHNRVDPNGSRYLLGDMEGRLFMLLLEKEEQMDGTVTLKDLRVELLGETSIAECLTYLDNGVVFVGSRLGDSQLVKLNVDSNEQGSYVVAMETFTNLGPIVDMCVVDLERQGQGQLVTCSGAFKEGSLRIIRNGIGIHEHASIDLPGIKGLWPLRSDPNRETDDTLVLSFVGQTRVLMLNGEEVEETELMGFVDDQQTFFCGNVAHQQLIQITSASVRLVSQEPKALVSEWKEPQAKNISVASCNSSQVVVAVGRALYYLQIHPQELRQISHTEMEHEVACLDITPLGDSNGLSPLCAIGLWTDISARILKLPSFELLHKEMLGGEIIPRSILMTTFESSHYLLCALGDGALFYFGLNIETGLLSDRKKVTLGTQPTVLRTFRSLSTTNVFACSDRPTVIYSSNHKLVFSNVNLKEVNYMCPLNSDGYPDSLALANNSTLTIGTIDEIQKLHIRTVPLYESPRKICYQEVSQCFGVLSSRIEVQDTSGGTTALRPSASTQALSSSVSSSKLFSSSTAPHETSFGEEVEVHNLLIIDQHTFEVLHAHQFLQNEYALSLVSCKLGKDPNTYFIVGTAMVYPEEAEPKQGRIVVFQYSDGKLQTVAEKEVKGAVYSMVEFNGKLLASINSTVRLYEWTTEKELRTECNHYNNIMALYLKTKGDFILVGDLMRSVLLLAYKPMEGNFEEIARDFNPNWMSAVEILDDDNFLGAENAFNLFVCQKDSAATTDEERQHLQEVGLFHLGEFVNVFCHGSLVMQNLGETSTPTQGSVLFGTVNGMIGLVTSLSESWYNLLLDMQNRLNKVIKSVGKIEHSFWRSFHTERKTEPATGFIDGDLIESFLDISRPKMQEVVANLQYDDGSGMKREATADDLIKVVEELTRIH", "test": "CRBN fluorescence polarization (FP) displacement assay", "type": "binding", "parameters": "key: % activity normalized to DMSO (0) and CC-220 (100) controls", "procedure": "The assay cocktail was prepared by combining 6XHis-CRBN-DDB1 protein (200 nM) and Cy5-O-Len probe (30 nM) in 20 mM HEPES pH 7, 150 mM NaCl, 0.005% Tween-20 assay buffer. […] Then 20 μL of the assay cocktail was dispensed to wells of the assay plate with a Multidrop Combi Reagent Dispenser (Thermo Fisher Scientific, USA). The plates were incubated in the dark for 1 h at room temperature and then read on an Envision plate reader (Perkin Elmer, USA). Raw intensity values for each compound at each concentration were normalized to obtain % activity using the following equation: 100×[(mean(negctrl)–compound)/(mean (negctrl)–mean (posctrl))], and then pooled from replicate experiments prior to fitting. Here, negctrl and posctrl refer to the negative (DMSO) and positive controls (CC-220) on each plate. Dose-response curves were fit to the Hill equation using the GraphPad Prism (version 10)."}},
  "note": "Several values for one entry are separate records, joined by “and”; a condition that tells them apart may be missing. Identical values can stand only once.",
  "data": [
    {"smiles": "O=C1CCC(N2Cc3c(CNC(=O)c4ccc(F)cc4)cccc3C2=O)C(=O)N1", "note": "(centres unmarked) [SJ7095]", "values": [
      {"measurement": "Effect on MOLM-13 cell viability (cytotoxicity)", "setting": "MOLM-13 cells [1]; CTG 72 h", "result": "high toxicity against MOLM-13 cells"},
      {"measurement": "IC50", "setting": "MOLM-13 cells [1]; Homo sapiens, MOLM-13, CTG 72 h, read-out: IC50, MOLM-13 cell growth/viability", "result": 0.071, "unit": "µM"},
      {"measurement": "Cell viability in MOLM-13 cells", "setting": "MOLM-13 cells [1]; Conc 0.00049449", "result": "80.5902 and 73.7069 and 73.7893"},
      {"measurement": "Cell viability in MOLM-13 cells", "setting": "MOLM-13 cells [1]; Conc 0.00148346", "result": "82.2036 and 73.2259 and 66.8432"},
      {"measurement": "Cell viability in MOLM-13 cells", "setting": "MOLM-13 cells [1]; Conc 0.00445039", "result": "62.2665 and 53.3724 and 60.8209"},
      {"measurement": "Cell viability in MOLM-13 cells", "setting": "MOLM-13 cells [1]; Conc 0.0133512", "result": "41.9606 and 38.8721 and 37.6352"},
      {"measurement": "Cell viability in MOLM-13 cells", "setting": "MOLM-13 cells [1]; Conc 0.0400535", "result": "36.9208 and 28.2407 and 35.9101"},
      {"measurement": "Cell viability in MOLM-13 cells", "setting": "MOLM-13 cells [1]; Conc 0.12016", "result": "28.8773 and 35.0792 and 25.4306"},
      {"measurement": "Cell viability in MOLM-13 cells", "setting": "MOLM-13 cells [1]; Conc 0.360481", "result": "19.8758 and 18.9138 and 19.7816"},
      {"measurement": "Cell viability in MOLM-13 cells", "setting": "MOLM-13 cells [1]; Conc 1.08144", "result": "22.2039 and 16.4235 and 15.6504"},
      {"measurement": "Cell viability in MOLM-13 cells", "setting": "MOLM-13 cells [1]; Conc 3.24433", "result": "17.3048 and 13.4196 and 15.362"},
      {"measurement": "Cell viability in MOLM-13 cells", "setting": "MOLM-13 cells [1]; Conc 9.733 (unit not given), replicates", "result": "7.49 and 6.672 and 5.493"},
      {"measurement": "Log2FC vs. DMSO, CDKN1A (Cyclin-dependent kinase inhibitor 1)", "setting": "MOLM-13 cells [2]; 1uM, 4h", "result": 1.031},
      {"measurement": "Log2FC vs. DMSO, CSNK1A1 (Casein kinase I isoform alpha)", "setting": "MOLM-13 cells [2]; 1uM, 4h", "result": -1.331},
      {"measurement": "TMT protein intensity, CDKN1A, replicate values", "setting": "MOLM-13 cells [2]; 1uM, 4h", "result": "6.19E+04 and 7.24E+04"},
      {"measurement": "TMT protein intensity, CSNK1A1, replicate values", "setting": "MOLM-13 cells [2]; 1uM, 4h", "result": "1.55E+05 and 1.67E+05"},
      {"measurement": "Log2FC vs. DMSO, CDKN1A (Cyclin-dependent kinase inhibitor 1)", "setting": "MOLM-13 cells [2]; 1uM, 8h", "result": 1.234},
      {"measurement": "Log2FC vs. DMSO, CSNK1A1 (Casein kinase I isoform alpha)", "setting": "MOLM-13 cells [2]; 1uM, 8h", "result": -1.306},
      {"measurement": "TMT protein intensity, CDKN1A, replicate values", "setting": "MOLM-13 cells [2]; 1uM, 8h", "result": "7.09E+04 and 8.39E+04"},
      {"measurement": "TMT protein intensity, CSNK1A1, replicate values", "setting": "MOLM-13 cells [2]; 1uM, 8h", "result": "1.62E+05 and 1.65E+05"},
      {"measurement": "Log2FC vs. DMSO, CDKN1A (Cyclin-dependent kinase inhibitor 1)", "setting": "MOLM-13 cells [2]; 1uM, 24h", "result": 1.074},
      {"measurement": "Log2FC vs. DMSO, CSNK1A1 (Casein kinase I isoform alpha)", "setting": "MOLM-13 cells [2]; 1uM, 24h", "result": -1.500},
      {"measurement": "TMT protein intensity, CDKN1A, replicate values", "setting": "MOLM-13 cells [2]; 1uM, 24h", "result": "7.28E+04 and 6.55E+04"},
      {"measurement": "TMT protein intensity, CSNK1A1, replicate values", "setting": "MOLM-13 cells [2]; 1uM, 24h", "result": "1.44E+05 and 1.42E+05"},
      {"measurement": "Proteins significantly degraded (TMT proteomics)", "setting": "MOLM-13 cells [2]; 5 µM, 4 h", "result": "significant degradation of only three proteins out of over 9000 identified proteins was observed: CK1α, IKZF1, and IKZF3"},
      {"measurement": "Log2FC vs. DMSO, CDKN1A", "setting": "MOLM-13 cells [2]; 5uM, 4h", "result": 1.546},
      {"measurement": "Log2FC vs. DMSO, CSNK1A1", "setting": "MOLM-13 cells [2]; 5uM, 4h", "result": -1.318},
      {"measurement": "Log2FC vs. DMSO, CDKN1A (Cyclin-dependent kinase inhibitor 1)", "setting": "MOLM-13 cells [2]; 5uM, 8h", "result": 1.278},
      {"measurement": "Log2FC vs. DMSO, CSNK1A1 (Casein kinase I isoform alpha)", "setting": "MOLM-13 cells [2]; 5uM, 8h", "result": -1.485},
      {"measurement": "TMT protein intensity, CDKN1A, replicate values", "setting": "MOLM-13 cells [2]; 5uM, 8h", "result": "8.76E+04 and 7.22E+04"},
      {"measurement": "TMT protein intensity, CSNK1A1, replicate values", "setting": "MOLM-13 cells [2]; 5uM, 8h", "result": "1.51E+05 and 1.38E+05"},
      {"measurement": "Log2FC vs. DMSO, CDKN1A (Cyclin-dependent kinase inhibitor 1)", "setting": "MOLM-13 cells [2]; 5uM, 24h", "result": 1.163},
      {"measurement": "Log2FC vs. DMSO, CSNK1A1 (Casein kinase I isoform alpha)", "setting": "MOLM-13 cells [2]; 5uM, 24h", "result": -1.582},
      {"measurement": "TMT protein intensity, CDKN1A, replicate values", "setting": "MOLM-13 cells [2]; 5uM, 24h", "result": "7.42E+04 and 7.27E+04"},
      {"measurement": "TMT protein intensity, CSNK1A1, replicate values", "setting": "MOLM-13 cells [2]; 5uM, 24h", "result": "1.48E+05 and 1.23E+05"},
      {"measurement": "Log2FC vs. DMSO, CDKN1A (Cyclin-dependent kinase inhibitor 1)", "setting": "MOLM-13 cells [2]; 10uM, 4h", "result": 1.536},
      {"measurement": "Log2FC vs. DMSO, CSNK1A1 (Casein kinase I isoform alpha)", "setting": "MOLM-13 cells [2]; 10uM, 4h", "result": -1.354},
      {"measurement": "TMT protein intensity, CDKN1A, replicate values", "setting": "MOLM-13 cells [2]; 10uM, 4h", "result": "1.01E+05 and 8.94E+04"},
      {"measurement": "TMT protein intensity, CSNK1A1, replicate values", "setting": "MOLM-13 cells [2]; 10uM, 4h", "result": "1.47E+05 and 1.71E+05"},
      {"measurement": "CRBN binding FP, Activity", "setting": "CRBN; SJ7095, [Compound] 0.00309 mM", "result": "8.11 and 10.4932 and 6.274"},
      {"measurement": "CRBN binding FP, Activity", "setting": "CRBN; SJ7095, [Compound] 0.02781 mM", "result": "14.0709 and 18.2061 and 13.5714"},
      {"measurement": "CRBN binding FP, Activity", "setting": "CRBN; SJ7095, [Compound] 0.08344 mM", "result": "25.188 and 27.6328 and 27.8185"},
      {"measurement": "CRBN binding FP, Activity", "setting": "CRBN; SJ7095, [Compound] 0.25033 mM", "result": "29.8604 and 33.1175 and 27.1236"},
      {"measurement": "CRBN binding FP, Activity", "setting": "CRBN; SJ7095, [Compound] 0.75100 mM", "result": "30.8271 and 30.718 and 33.0309"},
      {"measurement": "CRBN binding FP, Activity", "setting": "CRBN; SJ7095, [Compound] 2.25301 mM", "result": "46.2943 and 45.8008 and 46.583"},
      {"measurement": "CRBN binding FP, Activity", "setting": "CRBN; SJ7095, [Compound] 6.75903 mM", "result": "54.5113 and 62.5976 and 51.6216"},
      {"measurement": "CRBN binding FP, Activity", "setting": "CRBN; SJ7095, [Compound] 20.27708 mM", "result": "59.0226 and 67.7395 and 53.7066"}
    ]}
  ]
}
